Experimental findings from BindingDB's records for patent US11845767 (Rijksuniversiteit Groningen, 2023) are described below.

In test [1] the target is T1, Arginase-1 (Homo sapiens, UniProt P05089).
T1 sequence (P05089 whole entry): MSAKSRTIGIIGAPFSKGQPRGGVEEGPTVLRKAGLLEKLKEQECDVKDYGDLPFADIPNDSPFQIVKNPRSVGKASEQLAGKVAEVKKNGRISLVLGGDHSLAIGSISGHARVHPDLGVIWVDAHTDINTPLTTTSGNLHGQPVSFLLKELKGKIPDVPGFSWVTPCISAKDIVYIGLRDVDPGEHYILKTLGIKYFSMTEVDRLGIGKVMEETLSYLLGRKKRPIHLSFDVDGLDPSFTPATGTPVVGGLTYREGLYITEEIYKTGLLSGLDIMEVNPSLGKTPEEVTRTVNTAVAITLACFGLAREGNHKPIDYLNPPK
Nature of the test: Inhibition of Arginase. The procedure:
(§1) Inhibition of arginase I (ARG I) and arginase II (ARGG II) novel compounds is followed spectrophotometrically at 530 nm. The compound to be tested is dissolved in H2O and prepared 100 mM stock solution. 10 μl of the stock solution is diluted in 90 μl of the assay buffer that comprises 0.1M sodium phosphate buffer containing 130 mM NaCl, pH 7.4, to which is added ovalbumin (OVA) at a concentration of 1 mg/mi. Solutions of arginase I and II are prepared in 100 mM sodium phosphate buffer, pH 7.4 containing 1 mg/ml OVA to give an arginase stock solution at a final concentration of 100 ng/ml. To each well of a 96-well microtiter plate is add 40 μl of enzyme, 10 μl of an inventive compound and 10 μl of enzyme substrate (L-arginine+manganese sulfate). For wells that are used as positive controls, only the enzyme and its substrate are added, while wells used as negative controls contain only manganese sulfate. After incubating the microtiter plate at 37° C. for 60 minutes, 150 μl of a urea reagent obtained by combining equal proportions (1:1) of reagents A and B is added to each well of the microtiter plate to stop the reaction. The urea reagent is made just before use by combining Reagent A (10 mM o-phthaldialdehyde, and 0.4% polyoxyethylene (23) lauryl ether (w/v) in 1.8 M sulfuric acid) with Reagent B (1.3 mM […], 0.4% polyoxyethylene (23) lauryl ether (w/v), 130 mM boric acid in 3.6 M sulfuric acid). After quenching the reaction mixture, the microtiter plate is allowed to stand for an additional 10 minutes at room temperature to allow color development. T

The target in test [2] is T2, Arginase-2, mitochondrial (Homo sapiens, UniProt P78540).
T2 sequence (P78540 whole entry): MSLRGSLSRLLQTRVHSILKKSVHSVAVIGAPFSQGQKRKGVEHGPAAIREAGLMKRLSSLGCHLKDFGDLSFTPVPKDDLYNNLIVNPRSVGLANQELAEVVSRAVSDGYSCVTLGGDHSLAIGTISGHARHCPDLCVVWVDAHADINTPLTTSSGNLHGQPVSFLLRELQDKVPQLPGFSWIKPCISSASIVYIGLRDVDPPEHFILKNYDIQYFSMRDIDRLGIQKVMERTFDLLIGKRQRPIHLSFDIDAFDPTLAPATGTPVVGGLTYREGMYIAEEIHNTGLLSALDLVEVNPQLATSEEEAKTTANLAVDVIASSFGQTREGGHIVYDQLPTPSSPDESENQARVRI
The test is described as follows: Inhibition of Arginase. The procedure:
as §1

A value given as a limit tells only on which side of the number the result lay.

A word on the IC50: it is the concentration that inhibits the measured activity by half. Low values mean inhibition by little substance, high ones a need for much substance. In turn, `CCCCNC(=O)Cn1nnnc1C(N)CCCCB(O)O` (stereo not given) [US11845767, Example 271] yielded an IC50 in test [1] of 0.014 µM. That is a double-digit nanomolar value.

In test [1], `NC(CCCCB(O)O)c1nnnn1CC(=O)N1CCOCC1` (stereo not given) [US11845767, Example 274] gave an IC50 of 0.34 µM. This IC50 is about 24-fold higher than that of the molecule before.

With `NC(CCCCB(O)O)c1nnnn1CCc1ccc(Br)cc1` (stereo not given) [US11845767, Example 313], the IC50 in test [1] is under 0.101 µM.

With `NC(CCCCB(O)O)c1nnnn1CC(=O)NCc1ccc(Cl)cc1F` (stereo not given) [US11845767, Example 318], the IC50 in test [1] worked out at 0.0155 µM; in test [2], 0.0186 µM.
